In patent US10167257B2, “Indole derivatives for use in medicine” (IOmet Pharma Ltd., priority 2014, dated 2019):

Columns and labels:
[1] = target: T1, TDO (A172 cells) (Homo sapiens, UniProt P48775); assay: TDO cell-based assay (A172), kynurenine production; conditions: A172 human glioblastoma cells, 500 μM L-Trp, 48 h, kynurenine by absorbance at 490 nm
T1 construct: This assay utilised cancer cells which expressed either TDO or IDO; host or cells: A172 human glioblastoma cells
In short: (§1)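 Kynurenine output was read at 490 nm after 5 min with 1% Ehrlich's reagent, using supernatants from 48 h, 37 °C cultures containing 500 μM L-Trp and test compound. TDO activity came from A172 cells. IDO activity came from SKOV-3 cells, whose expression was induced by adding 500 ng/ml IFNγ.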

[2] = target: T2, IDO (SKOV-3 cells) (Homo sapiens, UniProt P14902); assay: IDO cell-based assay (SKOV-3, IFNγ-induced), kynurenine production; conditions: SKOV-3 ovary adenocarcinoma cells, IFNγ 500 ng/ml, 500 μM L-Trp, 48 h, kynurenine by absorbance at 490 nm
T2 construct: This assay utilised cancer cells which expressed either TDO or IDO; host or cells: SKOV-3 ovary adenocarcinoma cells, IFNγ-induced
In short: as §1

T2 sequence (P14902 whole entry): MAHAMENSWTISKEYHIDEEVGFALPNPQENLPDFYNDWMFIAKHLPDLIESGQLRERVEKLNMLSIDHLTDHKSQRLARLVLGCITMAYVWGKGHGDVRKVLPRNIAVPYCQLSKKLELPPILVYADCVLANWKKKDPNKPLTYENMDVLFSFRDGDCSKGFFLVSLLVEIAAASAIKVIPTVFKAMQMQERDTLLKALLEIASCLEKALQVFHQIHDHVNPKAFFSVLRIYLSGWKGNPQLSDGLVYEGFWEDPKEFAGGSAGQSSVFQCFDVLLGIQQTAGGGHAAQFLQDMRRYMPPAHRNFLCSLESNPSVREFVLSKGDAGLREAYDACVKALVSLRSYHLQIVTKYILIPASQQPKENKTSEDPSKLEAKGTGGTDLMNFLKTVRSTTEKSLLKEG
T1 sequence (P48775 whole entry): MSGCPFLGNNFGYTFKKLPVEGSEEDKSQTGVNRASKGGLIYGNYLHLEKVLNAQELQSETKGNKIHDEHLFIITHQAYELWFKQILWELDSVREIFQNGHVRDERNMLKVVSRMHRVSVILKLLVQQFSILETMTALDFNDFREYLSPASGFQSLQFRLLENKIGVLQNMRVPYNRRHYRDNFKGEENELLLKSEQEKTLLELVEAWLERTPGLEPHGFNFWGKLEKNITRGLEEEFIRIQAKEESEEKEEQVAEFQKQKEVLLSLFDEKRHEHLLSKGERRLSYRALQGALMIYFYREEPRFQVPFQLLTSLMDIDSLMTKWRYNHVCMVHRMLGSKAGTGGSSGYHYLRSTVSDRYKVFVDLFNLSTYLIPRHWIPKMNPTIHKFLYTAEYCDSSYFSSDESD

Compound | TDO cellular assay (A172) pIC50 [1] | IDO cellular assay (SKOV3) pIC50 [2] | IC50 ([1]; read-out: TDO cellular assay (A172) pIC50 (converted)) [µM] | IC50 ([2]; read-out: IDO cellular assay (SKOV3) pIC50 (converted)) [µM]
N#Cc1ccc2[nH]c(C(=O)NC3(c4ccccc4)CC3)cc2c1 [Compound 136] | − (− = pIC50 <4.50) | +++ (+++ = pIC50 ≥5.50) | – | –
N#Cc1ccc2[nH]c(C(=O)NC3(c4ccc(F)cc4)CC3)cc2c1 [Compound 137] | − (− = pIC50 <4.50) | +++ (+++ = pIC50 ≥5.50) | – | –
O=C(NC1(c2ccc(F)cc2)CC1)c1cc2cc(Cl)ccc2[nH]1 [Compound 138] | − (− = pIC50 <4.50) | +++ (+++ = pIC50 ≥5.50) | – | –
CC1(NC(=O)c2cc3cc(Cl)ccc3[nH]2)CC1 [Compound 139] | − (− = pIC50 <4.50) | + (+ = pIC50 4.50-<5.00) | – | –
O=C(NC1(c2nc(-c3ccccc3)no2)CC1)c1cc2cc(Cl)ccc2[nH]1 [Compound 140] | − (− = pIC50 <4.50) | +++ (+++ = pIC50 ≥5.50) | – | –
Cn1cc(C2(NC(=O)c3cc4cc(Cl)ccc4[nH]3)CC2)cn1 [Compound 141] | – | – | > 31.6 | ≤ 3.16
O=C(NC1(c2ccccc2)COC1)c1cc2cc(Cl)ccc2[nH]1 [Compound 142] | + (+ = pIC50 4.50-<5.00) | +++ (+++ = pIC50 ≥5.50) | – | –
O=C(NC1(c2ccn(-c3ccccc3)n2)CC1)c1cc2cc(Cl)ccc2[nH]1 [Compound 143] | + (+ = pIC50 4.50-<5.00) | +++ (+++ = pIC50 ≥5.50) | – | –
O=C(NC1(C2CCOCC2)CC1)c1cc2cc(Cl)ccc2[nH]1 [Compound 144] | + (+ = pIC50 4.50-<5.00) | +++ (+++ = pIC50 ≥5.50) | – | –
Cn1cc(C2(NC(=O)c3cc4cc(C#N)ccc4[nH]3)CC2)cn1 [Compound 145] | − (− = pIC50 <4.50) | +++ (+++ = pIC50 ≥5.50) | – | –
COc1ccc(-n2cc(C(C)NC(=O)c3cc4cc(Cl)ccc4[nH]3)cn2)cc1 (stereo not shown) [Compound 146] | − (− = pIC50 <4.50) | +++ (+++ = pIC50 ≥5.50) | – | –
CC(=O)N1CC(C(C)NC(=O)c2cc3cc(Cl)ccc3[nH]2)C1 (stereo not shown) [Compound 147] | − (− = pIC50 <4.50) | +++ (+++ = pIC50 ≥5.50) | – | –
O=C(NC1(c2ccc(Cl)cc2)CC1)c1cc2cc(Cl)ccc2[nH]1 [Compound 148] | + (+ = pIC50 4.50-<5.00) | +++ (+++ = pIC50 ≥5.50) | – | –
COc1ccc(C2(NC(=O)c3cc4cc(Cl)ccc4[nH]3)CC2)cc1 [Compound 150] | ++ (++ = pIC50 5.00-<5.50) | +++ (+++ = pIC50 ≥5.50) | – | –
O=C(NC1(c2cnn(-c3ccccc3)c2)CC1)c1cc2cc(Cl)ccc2[nH]1 [Compound 151] | − (− = pIC50 <4.50) | +++ (+++ = pIC50 ≥5.50) | – | –
CC(NC(=O)c1cc2cc(Cl)ccc2[nH]1)C1CN(S(C)(=O)=O)C1 (stereo not shown) [Compound 152] | − (− = pIC50 <4.50) | ++ (++ = pIC50 5.00-<5.50) | – | –

Compound | TDO cellular assay (A172) pIC50 [1] | IDO cellular assay (SKOV3) pIC50 [2] | IC50 ([1]; read-out: TDO cellular assay (A172) pIC50 (converted)) [µM] | IC50 ([2]; read-out: IDO cellular assay (SKOV3) pIC50 (converted)) [µM]
O=C(NC1(c2cccnc2)CC1)c1cc2cc(Cl)ccc2[nH]1 [Compound 153] | − (− = pIC50 <4.50) | +++ (+++ = pIC50 ≥5.50) | – | –
CC(CN(C)S(C)(=O)=O)NC(=O)c1cc2cc(Cl)ccc2[nH]1 (stereo not shown) [Compound 154] | − (− = pIC50 <4.50) | + (+ = pIC50 4.50-<5.00) | – | –
O=C(NC1(c2ccccn2)CC1)c1cc2cc(Cl)ccc2[nH]1 [Compound 155] | − (− = pIC50 <4.50) | +++ (+++ = pIC50 ≥5.50) | – | –
O=C(NC1(c2ccccc2)CC1)c1cc2cc(C(F)(F)F)ccc2[nH]1 [Compound 156] | − (− = pIC50 <4.50) | +++ (+++ = pIC50 ≥5.50) | – | –
CC(NC(=O)c1cc2cc(C(F)(F)F)ccc2[nH]1)c1cnn(C)c1 (stereo not shown) [Compound 157] | − (− = pIC50 <4.50) | ++ (++ = pIC50 5.00-<5.50) | – | –
C[C@@H](NC(=O)c1cc2cc(C(F)(F)F)ccc2[nH]1)c1ccccc1 [Compound 158] | − (− = pIC50 <4.50) | +++ (+++ = pIC50 ≥5.50) | – | –
COc1ccc2cc(C(=O)N[C@H](C)c3ccccc3)[nH]c2c1 [Compound 159] | − (− = pIC50 <4.50) | ++ (++ = pIC50 5.00-<5.50) | – | –
CC(=O)N1CCC(C2(NC(=O)c3cc4cc(Cl)ccc4[nH]3)CC2)CC1 [Compound 160] | − (− = pIC50 <4.50) | +++ (+++ = pIC50 ≥5.50) | – | –
CS(=O)(=O)N1CCC(C2(NC(=O)c3cc4cc(Cl)ccc4[nH]3)CC2)CC1 [Compound 161] | − (− = pIC50 <4.50) | +++ (+++ = pIC50 ≥5.50) | – | –
COc1ccc2cc(C(=O)NC3(c4ccccc4)CC3)[nH]c2c1 [Compound 162] | − (− = pIC50 <4.50) | ++ (++ = pIC50 5.00-<5.50) | – | –
C[C@@H](NC(=O)c1cc2cc(Cl)cnc2[nH]1)c1ccccc1 [Compound 163] | − (− = pIC50 <4.50) | + (+ = pIC50 4.50-<5.00) | – | –
O=C(NC1(c2ccccc2)CC1)c1cc2cc(Cl)cnc2[nH]1 [Compound 164] | − (− = pIC50 <4.50) | +++ (+++ = pIC50 ≥5.50) | – | –
CC(NC(=O)c1cc2cc(Cl)cnc2[nH]1)c1cnn(C)c1 (stereo not shown) [Compound 165] | − (− = pIC50 <4.50) | + (+ = pIC50 4.50-<5.00) | – | –
COc1ccc2cc(C(=O)NC(C)c3cnn(C)c3)[nH]c2c1 (stereo not shown) [Compound 166] | − (− = pIC50 <4.50) | + (+ = pIC50 4.50-<5.00) | – | –
COc1ccc2cc(C(=O)NC3(c4cnn(C)c4)CC3)[nH]c2c1 [Compound 167] | − (− = pIC50 <4.50) | ++ (++ = pIC50 5.00-<5.50) | – | –
Cn1cc(C2(NC(=O)c3cc4cc(C(F)(F)F)ccc4[nH]3)CC2)cn1 [Compound 168] | + (+ = pIC50 4.50-<5.00) | +++ (+++ = pIC50 ≥5.50) | – | –

More lines, now with the values ahead:

TDO cellular assay (A172) pIC50 [1] | IDO cellular assay (SKOV3) pIC50 [2] | IC50 ([1]; read-out: TDO cellular assay (A172) pIC50 (converted)) [µM] | IC50 ([2]; read-out: IDO cellular assay (SKOV3) pIC50 (converted)) [µM] | Compound
− (− = pIC50 <4.50) | ++ (++ = pIC50 5.00-<5.50) | – | – | COc1ccc2cc(C(=O)NC3(c4ccccc4)COC3)[nH]c2c1 [Compound 169]
+ (+ = pIC50 4.50-<5.00) | +++ (+++ = pIC50 ≥5.50) | – | – | O=C(NC1(c2ccccc2)COC1)c1cc2cc(C(F)(F)F)ccc2[nH]1 [Compound 170]
− (− = pIC50 <4.50) | +++ (+++ = pIC50 ≥5.50) | – | – | O=C(NC1(c2ccccc2)COC1)c1cc2cc(Cl)cnc2[nH]1 [Compound 171]
− (− = pIC50 <4.50) | + (+ = pIC50 4.50-<5.00) | – | – | O=C(NC1(c2ccccc2)CC1)c1cc2ccc(O)cc2[nH]1 [Compound 172]
− (− = pIC50 <4.50) | +++ (+++ = pIC50 ≥5.50) | – | – | CC(NC(=O)c1cc2cc(Cl)ccc2[nH]1)c1ccn(-c2ccccc2)n1 (stereo not shown) [Compound 173]
++ (++ = pIC50 5.00-<5.50) | +++ (+++ = pIC50 ≥5.50) | – | – | C[C@@H](NC(=O)c1cc2cc(Cl)cc(F)c2[nH]1)c1ccccc1 [Compound 174]
− (− = pIC50 <4.50) | +++ (+++ = pIC50 ≥5.50) | – | – | COc1ccc2[nH]c(C(=O)N[C@H](C)c3ccccc3)cc2c1 [Compound 175]
− (− = pIC50 <4.50) | +++ (+++ = pIC50 ≥5.50) | – | – | COc1ccc2[nH]c(C(=O)NC3(c4cnn(C)c4)CC3)cc2c1 [Compound 176]
− (− = pIC50 <4.50) | ++ (++ = pIC50 5.00-<5.50) | – | – | Cn1cc(C2(NC(=O)c3cc4cc(Cl)cnc4[nH]3)CC2)cn1 [Compound 177]
− (− = pIC50 <4.50) | +++ (+++ = pIC50 ≥5.50) | – | – | COc1ccc2[nH]c(C(=O)NC3(c4ccccc4)COC3)cc2c1 [Compound 178]
− (− = pIC50 <4.50) | ++ (++ = pIC50 5.00-<5.50) | – | – | O=C(NC1(c2ncccn2)CC1)c1cc2cc(Cl)ccc2[nH]1 [Compound 179]
− (− = pIC50 <4.50) | + (+ = pIC50 4.50-<5.00) | – | – | C[C@@H](NC(=O)c1cc2ccc(C(F)F)cc2[nH]1)c1ccccc1 [Compound 180]
− (− = pIC50 <4.50) | + (+ = pIC50 4.50-<5.00) | – | – | C[C@@H](NC(=O)c1cc2cc(O)ccc2[nH]1)c1ccccc1 [Compound 181]
− (− = pIC50 <4.50) | +++ (+++ = pIC50 ≥5.50) | – | – | COc1ccc2[nH]c(C(=O)NC3(c4ccccc4)CC3)cc2c1 [Compound 182]
+ (+ = pIC50 4.50-<5.00) | +++ (+++ = pIC50 ≥5.50) | – | – | C[C@@H](NC(=O)c1cc2c(F)c(Cl)ccc2[nH]1)c1ccccc1 [Compound 183]
